These results are taken from patent US8044075B2, “IL-8 receptor antagonists” (GlaxoSmithKline, priority 2006, dated 2011).

A word on the IC50: it is the concentration needed to halve the response being measured.

The test system of the first assay is Primary human neutrophils. Nature of the assay: Neutrophil chemotaxis assay (IL-8 or GRO-α as chemoattractant). In kind it is cell-based. To be noted: 0.75 h, IL-8 or GRO-α at EC80, 45 minutes, span over all compounds tested, units (nM, uM) given within the value, read-out: IC50 range of the compounds tested, neutrophil chemotaxis. As for the experimental part: The in vitro inhibitory properties of these compounds were determined in a neutrophil chemotaxis assay. Primary human neutrophils were isolated from peripheral whole blood using percoll discontinuous gradient centrifugation, dextran sedimentation and hypotonic lysis. The chemoattractants IL-8 (CXCL8) or GRO-α (CXCL1) were placed in the bottom chamber of a 96 multi-well chamber (ChemoTx System, Neuro Probe, Gaithersburg, Md.). The agonist concentration used was an EC80 concentration. The two chambers are separated by a 5 um polycarbonate membrane. When compounds of this invention were tested, they were preincubated with the cells prior to placement on the top of the filter. Chemotaxis was allowed to proceed for 45 minutes in a humidified incubator at 37° C. with 5% CO2. At the end of the incubation period, the membrane was removed and the migrated cells in the bottom chamber were transferred to a 96-well plate. These cells were measured using a luminescent cell viability assay (Celltiter-Glo, Promega, Madison, Wis.). Each sample was tested in duplicate and each compound repeated at least three times. Positive control cells were cells without compound added and represent the maximum chemotactic response. The negative control (unstimulated) was with no chemokine added to the bottom chamber. The difference between the positive control and the negative control represents the chemotactic activity of the cells.
Turning to `CCNS(=O)(=O)c1ccc(F)c(C(=O)Nc2nnc(C(C)(C)c3ccccc3F)s2)c1` [Example 63, 5-[(ethylamino)sulfonyl]-2-fluoro-N-{5-[1-(2-fluorophenyl)-1-methylethyl]-1,3,4-thiadiazol-2-yl}-benzamide], the half-inhibitory concentration (IC50) was in the range of 63 to 8000 nM.
Consider `CC(C)CNS(=O)(=O)c1ccc(F)c(C(=O)Nc2nnc(-c3ccc(F)cc3)s2)c1` [Example 18, 2-fluoro-N-[5-(4-fluorophenyl)-1,3,4-thiadiazol-2-yl]-5-{[(2-methylpropyl)amino]sulfonyl}benzamide], for which the IC50 lay within 63 to 8000 nM.
On to `CCNS(=O)(=O)c1cc(F)c(F)c(C(=O)Nc2nnc(C(C)(C)c3ccccc3)s2)c1` [Example 29, 5-[(ethylamino)sulfonyl]-2,3-difluoro-N-[5-(1-methyl-1-phenylethyl)-1,3,4-thiadiazol-2-yl]benzamide], for which the IC50 lay in the range of 63 to 8000 nM.
For `CCNS(=O)(=O)c1ccc(F)c(C(=O)Nc2nnc(C3(C)CCCC3)s2)c1` [Example 59, 5-[(ethylamino)sulfonyl]-2-fluoro-N-[5-(1-methylcyclopentyl)-1,3,4-thiadiazol-2-yl]benzamide], the 50% inhibitory concentration (IC50) was 63 to 8000 nM.
Consider `O=C(Nc1nnc(C2(c3cccc(F)c3)CCC2)s1)c1cc(S(=O)(=O)NCC2CC2)ccc1F` [Example 77, 5-{[(cyclopropylmethyl)amino]sulfonyl}-2-fluoro-N-{5-[1-(3-fluorophenyl)-cyclobutyl]-1,3,4-thiadiazol-2-yl}-benzamide], for which the IC50 was in the range of 63 to 8000 nM.
On the same count and under the same terms, to `CC(C)(C)c1nnc(NC(=O)c2cc(S(N)(=O)=O)ccc2F)s1` [Example 39, 5-(aminosulfonyl)-N-[5-(1,1-dimethylethyl)-1,3,4-thiadiazol-2-yl]-2-fluorobenzamide] belongs 63 to 8000 nM; to `CC(C)(c1ccccc1)c1nnc(NC(=O)c2cc(S(=O)(=O)NC3CC3)ccc2F)s1` [Example 49, 5-[(cyclopropylamino)sulfonyl]2-fluoro-N-[5-(1-methyl-1-phenylethyl)-1,3,4-thiadiazol-2-yl]benzamide], 63 to 8000 nM; to `CCNS(=O)(=O)c1ccc(F)c(C(=O)Nc2nnc(C3CCCC3)s2)c1` [Example 58, N-(5-cyclopentyl-1,3,4-thiadiazol-2-yl)-5-[(ethylamino)sulfonyl]-2-fluorobenzamide], 63 to 8000 nM.
On the same count and under the same terms, to `O=C(Nc1nnc(C2(c3cccc(F)c3)CCC2)s1)c1cc(S(=O)(=O)NCC(F)(F)F)ccc1F` [Example 72, 2-fluoro-N-{5-[1-(3-fluorophenyl)-cyclobutyl]-1,3,4-thiadiazol-2-yl}-5-([(2,2,2-trifluoroethyl)amino]-sulfonyl}benzamide] belongs 63 to 8000 nM.
Same read-out and setting: as for `CCNS(=O)(=O)c1cc(F)c(Cl)c(C(=O)Nc2nnc(-c3ccc(F)cc3)s2)c1` [Example 22, 2-chloro-5-[(ethylamino)sulfonyl]-3-fluoro-N-[5-(4-fluorophenyl)-1,3,4-thiadiazol-2-yl]-benzamide], the figure is 63 to 8000 nM; as for `NS(=O)(=O)c1ccc(F)c(C(=O)Nc2nnc(-c3ccc(F)cc3)s2)c1` [Example 44, 5-(aminosulfonyl)-2-fluoro-N-[5-(4-fluorophenyl)-1,3,4-thiadiazol-2-yl] benzamide], 63 to 8000 nM.
With `CCNS(=O)(=O)c1ccc(F)c(C(=O)Nc2nnc(C3(C)CCCCC3)s2)c1` [Example 57, 5-[(cthylamino)sulfonyl]-2-fluoro-N-[5-(1-methylcyclohexyl)-1,3,4-thiadiazol-2-yl] benzamide], the half-maximal inhibitory concentration (IC50) is 63 to 8000 nM.
On the same count and under the same terms, to `O=C(Nc1nnc(-c2ccc(F)cc2)s1)c1cc(S(=O)(=O)Nc2ccccc2)ccc1F` [Example 20, 2-fluoro-N-[5-(4-fluorophenyl)-1,3,4-thiadiazol-2-yl]-5-[(phenylamino)sulfonyl]benzamide] belongs 63 to 8000 nM.
Still for that read-out and setting: to `CCNS(=O)(=O)c1cc(F)c(F)c(C(=O)Nc2nnc(C(C)(C)C)s2)c1` [Example 27, N-[5-(1,1-dimethylethyl)-1,3,4-thiadiazol-2-yl]-5-[(ethylamino)sulfonyl]-2,3-difluorobcnzamidc] belongs 63 to 8000 nM.
Still for that read-out and setting: as for `CCNS(=O)(=O)c1ccc(F)c(C(=O)Nc2nnc(C(C)(C)c3ccccc3)s2)c1` [Example 1, 5-[(ethylamino)sulfonyl]-2-fluoro-N-[5-(1-methyl-1-phenylethyl)-1,3,4-thiadiazol-2-yl]benzamide], the figure is 63 to 8000 nM; as for `CCNS(=O)(=O)c1ccc(F)c(C(=O)Nc2nnc(C3(c4cccc(F)c4)CCC3)s2)c1` [Example 76, 5-[(ethylamino)sulfonyl]-2-fluoro-N-{5-[1-(3-fluorophenyl)-cyclobutyl]-1,3,4-thiadiazol-2-yl}-benzamide], 63 to 8000 nM; as for `CCNS(=O)(=O)c1ccc(F)c(C(=O)Nc2nnc(C3(c4ccccc4)CCC3)s2)c1` [Example 92, 5-[(ethylamino)sulfonyl]-2-fluoro-N-[5-(1-phenylcyclobutyl)-1,3,4-thiadiazol-2-yl]-benzamide], 63 to 8000 nM.
`CC(C)(c1ccccc1)c1nnc(NC(=O)c2cc(S(N)(=O)=O)cc(Cl)c2Cl)s1` [Example 36, 5-(aminosulfonyl)-2,3-dichloro-N-[5-(1-methyl-1-phenylethyl)-1,3,4-thiadiazol-2-yl]benzamide]: the concentration for half-maximal inhibition (IC50) lay within 63 to 8000 nM.
Regarding `CCNS(=O)(=O)c1cc(F)c(F)c(C(=O)Nc2nnc(-c3ccc(F)cc3)s2)c1` [Example 6, 5-[(ethylamino)sulfonyl]-2,3-difluoro-N-[5-(4-fluorophenyl)-1,3,4-thiadiazol-2-yl]benzamide], the IC50 is 63 to 8000 nM.

A further assay concerns GROα-induced expression of the integrin CD11b on neutrophils in human whole blood. Nature of the assay: CD11b human whole blood assay. The assay is classed as cell-based. The note with it: Neutrophil, 10 nM GROα, read-out: IC50, inhibition of GROα-induced CD11b expression. The protocol:
The compounds indicated were tested for their ability to inhibit the GROα-induced expression of the integrin CD11b on neutrophils in human whole blood.
Blood was drawn (9 ml) using a butterfly line and a 10 ml syringe containing 0.2 ml of working Sodium Heparin. The blood was kept at 37° C. until placed on ice in step 5 below. Compound stock solutions were then diluted to 12 times the maximum final concentration, 120 uM. Half Log serial dilutions were then performed in vehicle. Ten microliters of the compound dilutions or vehicle were then added to the appropriate 12×75 polypropylene tubes. One hundred microliters of whole blood was added per tube and incubated for 10 minutes, in a 37° C. water bath with initial (gentle) agitation and again at 5 minutes. The GROα stock was diluted 1:166.66 in 0.1% BSA-DPBS to “12x” concentration of 120 nM and 10 ul of the GROα dilution or 0.1% BSA-DPBS was added to the appropriate tubes so that the final GROα concentration equaled 10 nM. The tubes were incubated for 10 min at 37° C. with gentle hand agitation and again at 5 minutes. Samples were then placed on ice and 250 ul of ice cold CellFix working dilution was added followed by a one minute incubation on ice. 1.5 ml Eppendorf tubes were readied during GROα incubation by adding the appropriate antibodies. Every tube received 10 ul of CD11b-FITC and 5 ul of CD 16-PE, except for the isotype control which received 10 ul of IgG2a-FITC instead of CD11b. Addition of 50 ul of the fixed blood from each tube was added to the appropriate Eppendorf tube. Samples were allowed to then incubate for 20 min at 4° C. in the dark. Addition of the blood/antibody mixtures to 500 ul of cold DPBS were added to the appropriately labeled 12×75 polystyrene tube. The resulting mixture was kept on ice. LDS stock (10 ul) was added and the mixture was incubated for 10 min at 4° C. before flow analysis. Samples were kept in a darkened environment. The LDS addition was staggered as the samples were collected on the flow cytometer so that all samples were run ˜10-20 minutes post-LDS addition. […]
For the compound `CC(C)(c1ccccc1)c1nnc(NC(=O)c2cc(S(N)(=O)=O)ccc2F)s1` [Example 61, 5-(aminosulfonyl)-2-fluoro-N-[5-(1-methyl-1-phenylethyl)-1,3,4-thiadiazol-2-yl]-benzamide], the IC50 is under 5 µM.
The same measure, in the same setting: as for `CCNS(=O)(=O)c1ccc(F)c(C(=O)Nc2nnc(C3(c4ccccc4)CCCC3)s2)c1` [Example 52, 5-[(ethylamino)sulfonyl]-2-fluoro-N-[5-(1-phenylcyclopentyl)-1,3,4-thiadiazol-2-yl]benzamide], the figure is under 5 µM; as for `CCNS(=O)(=O)c1ccc(F)c(C(=O)Nc2nnc(C(C)(C)C)s2)c1` [Example 28, N-[5-(1,1-dimcthylcthyl)-1,3,4-thiadiazol-2-yl]-5-[(ethylamino)sulfonyl]-2-fluorobenzamide], under 5 µM.
